We go through 1 compound from PMC6240685, “Strong Inhibitory Effect, Low Cytotoxicity and High Plasma Stability of Steroidal Inhibitors of N-Methyl-D-Aspartate Receptors With C-3 Amide Structural Motif” (Frontiers in Pharmacology, 2018).

This test has as its system AMPARs. Put plainly: Inhibition of native AMPAR responses in cultured hippocampal neurons. It counts as cell-based, rat. As to conditions: cyclothiazide 10 μM. Here is the method: FIGURE 8 The effect of compound 6 on peak and steady-state responses of native NMDARs, AMPARs, and GABARs. (A) Examples of traces obtained from cultured hippocampal neurons. […] Error bars represent SD from five independent measurements. Asterisks mark significance at the level of P < 0.05 (Paired t-test).
FIGURE 9 The effect of compound 6 on native NMDARs, AMPARs, and GABARs. (A) Example of traces obtained from cultured hippocampal neurons. Compound 6 (10 or 30 μM) was co-applied with NMDA (100 μM), AMPA (100 μM), and GABA (5 μM) (duration of agonist and steroid application is indicated by filled and open bars, respectively). […]
Electrophysiological experiments were performed on HEK293 cells transfected with plasmids encoding rat GluN1-1a/GluN2A-D and GFP genes as described previously, ([Petrovic et al., 2005]; [Cais et al., 2008]; [Korinek et al., 2010]) or on primary hippocampal neurons prepared from P0–P1 rats, plated on collagen/poly-D-lysine-coated glass coverslips at a density of ∼50,000 cells/cm^2, and grown in Neurobasal A medium with B27 Supplement (Gibco). […] Agonist-induced responses were low-pass filtered at 2 kHz, digitally sampled at 5 kHz, and analyzed with pClamp software version 10.5 (Molecular Devices). […] Action potentials were recorded in the current-clamp mode from primary hippocampal mass-culture neurons at 14–15 days in vitro. […]

As to `C[C@@]12CCC[C@H]1[C@@H]1CC[C@@H]3C[C@H](NC(=O)[C@@H](N)CC(=O)O)CC[C@]3(C)[C@H]1CC2` [Compound 6, (S)-3-amino-4-(((3R,5R,8S,9S,10S,13S,14S)-10,13-dimethylhexadecahydro-1H-cyclopenta[a]phenanthren-3-yl)amino)-4-oxobutanoic acid], where the note is “AMPA 100 μM”, the “effect on amplitude of AMPA-induced responses” value was “only little affected”. Moreover, the potency estimated from few doses (estimated from single dose (30 μM), Hill coefficient fixed at 1.2, 100 μM AMPA, read-out: IC50 at AMPAR responses (estimate)) was 276 ± 179 µM.
